Test results as given in PubChem BioAssay (NCI).
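Protocol summary: plate cells (96-well), add compound at 5 concentrations, incubate 48 h, interpolate endpoints linearly. Abbreviation: GI50, concentration required for 50% inhibition of growth. Definition used: TGI = concentration required for complete inhibition of growth.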

Columns and labels:
Assay in all cases: DTP human tumour cell line panel, 48 h
ACHN renal = system: ACHN renal
HOP-62 NSCLC = system: HOP-62 NSCLC
MALME-3M melanoma = system: MALME-3M melanoma
MOLT-4 leukemia = system: MOLT-4 leukemia
OVCAR-8 ovarian = system: OVCAR-8 ovarian
IGROV1 ovarian = system: IGROV1 ovarian
HT29 colon = system: HT29 colon
M14 melanoma = system: M14 melanoma
SK-MEL-28 melanoma = system: SK-MEL-28 melanoma
DU-145 prostate = system: DU-145 prostate

With `Cc1ccc(/C=C/C(=O)c2sc(-c3cccnc3)nc2C)cc1` the TGI (ACHN renal) was > 100 µM, the TGI (HOP-62 NSCLC) was > 100 µM and the TGI (MALME-3M melanoma) was > 100 µM. The TGI (MOLT-4 leukemia) was > 100 µM, the TGI (OVCAR-8 ovarian) was > 100 µM and the TGI (IGROV1 ovarian) was > 100 µM. The TGI (HT29 colon) was > 100 µM.

`NC(=S)N/N=C(\C(=O)Nc1cccc([N+](=O)[O-])c1)c1nc2ccc([N+](=O)[O-])cc2[nH]c1=O` was tested, and the TGI (ACHN renal) was > 100 µM, the TGI (HOP-62 NSCLC) was > 100 µM and the TGI (M14 melanoma) was > 100 µM. For the same compound, the TGI (MALME-3M melanoma) was > 100 µM, the TGI (MOLT-4 leukemia) was > 100 µM and the TGI (OVCAR-8 ovarian) was > 100 µM. For the same compound, the TGI (SK-MEL-28 melanoma) was > 100 µM, the TGI (IGROV1 ovarian) was > 100 µM and the TGI (HT29 colon) was > 100 µM.

`CCCN1CCN(c2ccc3nc(-c4ccc5nc(-c6cc(OC)ccc6OC)[nH]c5c4)[nH]c3c2)CC1` gave a GI50 (ACHN renal) of 1.69 µM, a TGI (ACHN renal) of 3.06 µM and a GI50 (M14 melanoma) of 1.78 µM. It also gave a TGI (M14 melanoma) of 3.31 µM, a GI50 (DU-145 prostate) of 1.89 µM and a TGI (DU-145 prostate) of 3.4 µM. It also gave a GI50 (MALME-3M melanoma) of 20.3 µM, a TGI (MALME-3M melanoma) of 40.9 µM and a GI50 (MOLT-4 leukemia) of 2.09 µM. It also gave a TGI (MOLT-4 leukemia) of 4.31 µM, a GI50 (SK-MEL-28 melanoma) of 18.9 µM and a TGI (SK-MEL-28 melanoma) of 35.9 µM. For the same compound, the GI50 (IGROV1 ovarian) was 13.5 µM, the TGI (IGROV1 ovarian) was 30.3 µM and the GI50 (HT29 colon) was 1.8 µM. For the same compound, the TGI (HT29 colon) was 3.46 µM.

In the case of `O=C([O][Hg][CH2]C1COCC([CH2][Hg][O]C(=O)c2ccccc2)O1)c1ccccc1` (centres undefined), the GI50 (ACHN renal) was 1.91 µM, the TGI (ACHN renal) was 3.71 µM and the GI50 (HOP-62 NSCLC) was 15.3 µM. It also gave a TGI (HOP-62 NSCLC) of 31.1 µM, a GI50 (M14 melanoma) of 6.01 µM and a TGI (M14 melanoma) of 19.9 µM. It also gave a GI50 (DU-145 prostate) of 15.2 µM, a TGI (DU-145 prostate) of 28.7 µM and a GI50 (MOLT-4 leukemia) of 2.96 µM. For the same compound, the TGI (MOLT-4 leukemia) was 12.5 µM, the GI50 (OVCAR-8 ovarian) was 2.03 µM and the TGI (OVCAR-8 ovarian) was 4.62 µM. The GI50 (SK-MEL-28 melanoma) was 6.86 µM, the TGI (SK-MEL-28 melanoma) was 19.6 µM and the GI50 (IGROV1 ovarian) was 2.1 µM. The TGI (IGROV1 ovarian) was 4.17 µM.

In the case of `COC(=O)C12CC3CC(C1)CC(C(=O)OC)(C3)C2`, the TGI (ACHN renal) was > 100 µM, the TGI (HOP-62 NSCLC) was > 100 µM and the TGI (M14 melanoma) was > 100 µM. For the same compound, the TGI (MOLT-4 leukemia) was > 100 µM, the TGI (OVCAR-8 ovarian) was > 100 µM and the TGI (SK-MEL-28 melanoma) was > 100 µM. For the same compound, the TGI (IGROV1 ovarian) was > 100 µM and the TGI (HT29 colon) was > 100 µM.

With `O=C1c2ccccc2C2(O)NC(=S)N(c3ccccc3)C12O` (centres undefined) the TGI (M14 melanoma) was > 100 µM, the TGI (MALME-3M melanoma) was > 100 µM and the TGI (MOLT-4 leukemia) was > 100 µM. The TGI (OVCAR-8 ovarian) was > 100 µM, the TGI (SK-MEL-28 melanoma) was > 100 µM and the TGI (IGROV1 ovarian) was > 100 µM. The TGI (HT29 colon) was > 100 µM.

In the case of `Nc1ncn(C2C=C(CO)C(O)C2O)c(=O)n1` (centres undefined), the TGI (ACHN renal) was > 100 µM, the TGI (HOP-62 NSCLC) was > 100 µM and the TGI (M14 melanoma) was > 100 µM. The TGI (MALME-3M melanoma) was > 100 µM, the TGI (MOLT-4 leukemia) was > 100 µM and the TGI (OVCAR-8 ovarian) was > 100 µM. The TGI (SK-MEL-28 melanoma) was > 100 µM and the TGI (IGROV1 ovarian) was > 100 µM.

`COc1cc(C(=O)C/C(CCC(=O)Nc2ccc(Cl)cc2C)=N/NC(=O)C(N)=O)ccc1O` was tested, and the TGI (ACHN renal) was > 100 µM, the TGI (HOP-62 NSCLC) was > 100 µM and the TGI (M14 melanoma) was > 100 µM. The TGI (MALME-3M melanoma) was > 100 µM, the TGI (MOLT-4 leukemia) was > 100 µM and the TGI (OVCAR-8 ovarian) was > 100 µM. For the same compound, the TGI (IGROV1 ovarian) was > 100 µM and the TGI (HT29 colon) was > 100 µM.

In the case of `O=C1c2cc([N+](=O)[O-])ccc2-c2cccc(F)c21`, the TGI (ACHN renal) was > 100 µM, the TGI (HOP-62 NSCLC) was > 100 µM and the TGI (M14 melanoma) was > 100 µM. For the same compound, the TGI (DU-145 prostate) was > 100 µM, the TGI (MOLT-4 leukemia) was > 100 µM and the TGI (OVCAR-8 ovarian) was > 100 µM. The TGI (SK-MEL-28 melanoma) was > 100 µM, the TGI (IGROV1 ovarian) was > 100 µM and the TGI (HT29 colon) was > 100 µM.

For `C[C@]12CC[C@H](OCCC#N)CC1=CC[C@@H]1C2CC[C@]2(C)/C(=N/OCCC#N)CCC12` (some centres undefined), the TGI (ACHN renal) was > 100 µM, the TGI (HOP-62 NSCLC) was > 100 µM and the TGI (M14 melanoma) was > 100 µM. The TGI (MALME-3M melanoma) was > 100 µM, the TGI (MOLT-4 leukemia) was > 100 µM and the TGI (OVCAR-8 ovarian) was > 100 µM. The TGI (SK-MEL-28 melanoma) was > 100 µM and the TGI (IGROV1 ovarian) was > 100 µM.

`CC(=O)Nc1c(C)ccc2c1C(=O)c1ccccc1C2=O` was tested, and the TGI (ACHN renal) was > 100 µM, the TGI (HOP-62 NSCLC) was > 100 µM and the TGI (M14 melanoma) was > 100 µM. The TGI (MALME-3M melanoma) was > 100 µM, the TGI (MOLT-4 leukemia) was > 100 µM and the TGI (OVCAR-8 ovarian) was > 100 µM. For the same compound, the TGI (IGROV1 ovarian) was > 100 µM and the TGI (HT29 colon) was > 100 µM.
